From PubChem BioAssay AID330 (DTP/NCI, 2004)
Several values for one entry are separate records, joined by “and”; a condition that tells them apart may be missing. Equal values may be shown once. Inconclusive results and toxic doses are left out.

System: P388 leukemia ip, CD2F1 mice, survival T/C
Test: NCI In Vivo Anticancer Drug Screen. Data for tumor model P388 Leukemia (intraperitoneal) in CD2F1 (CDF1) mice
Details: endpoint: median survival time, higher = longer survival
Summary of the method: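 Mice carrying the transplanted tumor received test compound or vehicle. Survival was recorded in each group, and the value is the treated-group measurement divided by that of the vehicle-treated control group.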

[1] = dose: 50.0 mg/kg/injection, schedule: Q01DX005 (ip), vehicle: Klucel (hydroxypropylcellulose) (HPC)
[2] = dose: 100.0 mg/kg/injection, schedule: Q01DX005 (ip), vehicle: Klucel (hydroxypropylcellulose) (HPC)
[3] = dose: 200.0 mg/kg/injection, schedule: Q01DX005 (ip), vehicle: Klucel (hydroxypropylcellulose) (HPC)
[4] = dose: 100.0 mg/kg/injection, schedule: Q01DX001 (ip), vehicle: saline with Tween-80
[5] = dose: 200.0 mg/kg/injection, schedule: Q01DX001 (ip), vehicle: saline with Tween-80
[6] = dose: 400.0 mg/kg/injection, schedule: Q01DX001 (ip), vehicle: saline with Tween-80
[7] = dose: 25.0 mg/kg/injection, schedule: Q01DX009 (ip), vehicle: saline with Tween-80
[8] = dose: 50.0 mg/kg/injection, schedule: Q01DX009 (ip), vehicle: saline with Tween-80
[9] = dose: 100.0 mg/kg/injection, schedule: Q01DX009 (ip), vehicle: saline with Tween-80
[10] = dose: 15.0 mg/kg/injection, schedule: Q01DX005 (ip), vehicle: saline with Tween-80
[11] = dose: 30.0 mg/kg/injection, schedule: Q01DX005 (ip), vehicle: saline with Tween-80
[12] = dose: 60.0 mg/kg/injection, schedule: Q01DX005 (ip), vehicle: Klucel (hydroxypropylcellulose) (HPC)
[13] = dose: 60.0 mg/kg/injection, schedule: Q01DX005 (ip), vehicle: saline with Tween-80
[14] = dose: 50.0 mg/kg/injection, schedule: Q01DX009 (ip), vehicle: saline
[15] = dose: 100.0 mg/kg/injection, schedule: Q01DX009 (ip), vehicle: saline
[16] = dose: 200.0 mg/kg/injection, schedule: Q01DX009 (ip), vehicle: saline
[17] = dose: 120.0 mg/kg/injection, schedule: Q01DX005 (ip), vehicle: saline with Tween-80
[18] = dose: 240.0 mg/kg/injection, schedule: Q01DX005 (ip), vehicle: saline with Tween-80
[19] = dose: 50.0 mg/kg/injection, schedule: Q01DX005 (ip), vehicle: saline with Tween-80
[20] = dose: 100.0 mg/kg/injection, schedule: Q01DX005 (ip), vehicle: saline with Tween-80
[21] = dose: 200.0 mg/kg/injection, schedule: Q01DX005 (ip), vehicle: saline with Tween-80
[22] = dose: 200.0 mg/kg/injection, schedule: Q01DX009 (ip), vehicle: saline with Tween-80

Structure (SMILES): Oc1ccc([C@H]2Oc3c(c(O)cc4c3C3c5c(O)cc(O)cc5OC(c5ccc(O)cc5)(O4)[C@H]3O)CC2O)cc1 (stereo not given in full)
- T/C (dose: 1.0 mg/kg/injection, schedule: Q01DX005 (ip), vehicle: Klucel (hydroxypropylcellulose) (HPC)): 103 % of control
- T/C (dose: 2.0 mg/kg/injection, schedule: Q01DX005 (ip), vehicle: Klucel (hydroxypropylcellulose) (HPC)): 103 % of control
- T/C (dose: 4.0 mg/kg/injection, schedule: Q01DX005 (ip), vehicle: Klucel (hydroxypropylcellulose) (HPC)): 110 % of control
- T/C (dose: 8.0 mg/kg/injection, schedule: Q01DX005 (ip), vehicle: Klucel (hydroxypropylcellulose) (HPC)): 103 % of control

Structure (SMILES): CC1(C)CC(=O)c2c(oc3ccc(O)cc23)C1
- T/C [1]: 97 % of control
- T/C [2]: 97 % of control
- T/C [3]: 92 % of control

Structure (SMILES): COc1ccc(-c2nn(-c3ccccc3)c(-c3ccc(OC)cc3)c2N=Nc2ccc(S(=O)(=O)Nc3nnc(C)s3)cc2)cc1
- T/C [4]: 100 % of control
- T/C [5]: 89 % of control
- T/C [6]: 93 % of control

Structure (SMILES): CCCCCN(CCCCC)c1nsc(Cl)n1
- T/C [7]: 108 % of control
- T/C [8]: 103 % of control
- T/C [9]: 100 % of control

Structure (SMILES): CCOC(=O)N/N=C(\C)c1nc2ccccc2[nH]1
- T/C [10]: 106 % of control
- T/C [11]: 108 % of control
- T/C [12]: 100 % of control
- T/C [13]: 101 % of control

Structure (SMILES): OCC(O)C(O)C(O)/C=N\O (stereo not given)
- T/C [14]: 98 % of control
- T/C [15]: 105 % of control
- T/C [16]: 98 % of control

Structure (SMILES): COc1ccc2nc(C)c(C(=O)O)c(C(=O)O)c2c1
- T/C (dose: 50.0 mg/kg/injection, schedule: Q01DX009 (ip), vehicle: suspension in saline): 99 % of control
- T/C (dose: 100.0 mg/kg/injection, schedule: Q01DX009 (ip), vehicle: suspension in saline): 103 % of control
- T/C (dose: 200.0 mg/kg/injection, schedule: Q01DX009 (ip), vehicle: suspension in saline): 108 % of control

Structure (SMILES): COc1ccc(C2COc3c(ccc(O)c3C)C2)cc1OC (stereo not given)
- T/C [13]: 97 % of control
- T/C [17]: 97 % of control
- T/C [18]: 95 % of control

Structure (SMILES): C[CH2][Ge]([CH2]C)[O][Ge]([CH2]C)[CH2]C.c1cc[c]([Ge]([c]2ccccc2)[c]2ccccc2)cc1.c1cc[c]([Ge]([c]2ccccc2)[c]2ccccc2)cc1
- T/C [13]: 88 % of control
- T/C [17]: 98 % of control
- T/C [18]: 98 % of control

Structure (SMILES): CN(C)CCN(C)c1cccc2c1C(=O)c1cscc1C2=O
- T/C (dose: 25.0 mg/kg/injection, schedule: Q01DX005 (ip), vehicle: saline): 100 % of control
- T/C (dose: 50.0 mg/kg/injection, schedule: Q01DX005 (ip), vehicle: saline): 100 % of control and 92 % of control

Structure (SMILES): CCN(CC)CCOc1c(Cl)cc(Cl)cc1Cl
- T/C [19]: 93 % of control
- T/C [20]: 111 % of control
- T/C [21]: 111 % of control

Structure (SMILES): c1ccc(C[N+]23CC[N+](Cc4ccccc4)(CC2)CC3)cc1
- T/C (dose: 50.0 mg/kg/injection, schedule: Q04DX003 (ip), vehicle: saline): 95 % of control
- T/C (dose: 100.0 mg/kg/injection, schedule: Q04DX003 (ip), vehicle: saline): 108 % of control
- T/C (dose: 200.0 mg/kg/injection, schedule: Q04DX003 (ip), vehicle: saline): 95 % of control

Structure (SMILES): CCN(CC)Cc1ccc(N)cc1O
- T/C [14]: 106 % of control and 107 % of control
- T/C [15]: 97 % of control and 98 % of control
- T/C [16]: 99 % of control and 97 % of control

Structure (SMILES): CC(C)(C)[OH+][O-].[O-]c1ccc(Cl)cc1C=Nc1ccc(Cl)cc1[O-].[O]=[V]
- T/C [10]: 100 % of control
- T/C [11]: 100 % of control
- T/C [13]: 101 % of control and 93 % of control

Structure (SMILES): COCc1cnc2nc(N)nc(N)c2n1
- T/C (dose: 0.39 mg/kg/injection, schedule: Q01DX009 (ip), vehicle: distilled water + Tween-80): 99 % of control
- T/C (dose: 0.78 mg/kg/injection, schedule: Q01DX009 (ip), vehicle: distilled water + Tween-80): 99 % of control
- T/C (dose: 1.56 mg/kg/injection, schedule: Q01DX009 (ip), vehicle: distilled water + Tween-80): 104 % of control
- T/C (dose: 3.13 mg/kg/injection, schedule: Q01DX009 (ip), vehicle: distilled water + Tween-80): 110 % of control

Structure (SMILES): CC1CN=C(c2ccc(NC(=O)c3cccc(C(=O)Nc4ccc(C5=NCC(C)N5)cc4)c3)cc2)N1 (stereo not given)
- T/C (dose: 12.0 mg/kg/injection, schedule: Q01DX010 (ip), vehicle: saline): 118 % of control
- T/C (dose: 18.0 mg/kg/injection, schedule: Q01DX010 (ip), vehicle: saline): 154 % of control
- T/C (dose: 27.0 mg/kg/injection, schedule: Q01DX010 (ip), vehicle: saline): 159 % of control
- T/C (dose: 40.0 mg/kg/injection, schedule: Q01DX010 (ip), vehicle: saline): 172 % of control

Structure (SMILES): O=C1C=CC(=O)C1=Cc1ccccc1
- T/C (dose: 2.5 mg/kg/injection, schedule: Q04DX002 (ip), vehicle: saline with Tween-80): 95 % of control
- T/C (dose: 5.0 mg/kg/injection, schedule: Q04DX002 (ip), vehicle: saline with Tween-80): 97 % of control

Structure (SMILES): COC(=O)/C=C/c1cc(=O)nc2sc3ccccc3n12
- T/C [12]: 93 % of control
- T/C (dose: 120.0 mg/kg/injection, schedule: Q01DX005 (ip), vehicle: Klucel (hydroxypropylcellulose) (HPC)): 93 % of control
- T/C (dose: 240.0 mg/kg/injection, schedule: Q01DX005 (ip), vehicle: Klucel (hydroxypropylcellulose) (HPC)): 94 % of control

Structure (SMILES): CC(C)(C)c1cc2c(=O)o[s+]3oc(=O)c(c1)c23
- T/C (dose: 6.25 mg/kg/injection, schedule: Q01DX009 (ip), vehicle: Klucel (hydroxypropylcellulose) (HPC)): 107 % of control
- T/C (dose: 12.5 mg/kg/injection, schedule: Q01DX009 (ip), vehicle: Klucel (hydroxypropylcellulose) (HPC)): 104 % of control
- T/C (dose: 25.0 mg/kg/injection, schedule: Q01DX009 (ip), vehicle: Klucel (hydroxypropylcellulose) (HPC)): 111 % of control

Structure (SMILES): CCOC(=O)c1cnc2cc3c(c[nH]n3C(c3ccccc3)(c3ccccc3)c3ccccc3)cc2c1=O
- T/C [8]: 94 % of control
- T/C [9]: 96 % of control
- T/C [22]: 97 % of control

Structure (SMILES): CS(=O)(=O)Nc1ccc(Oc2c3ccccc3nc3ccccc23)cc1
- T/C [4]: 91 % of control
- T/C [5]: 92 % of control
- T/C [6]: 90 % of control

Structure (SMILES): NS(=O)(=O)c1cc(Cl)cc(Cl)c1O
- T/C [8]: 100 % of control
- T/C [9]: 120 % of control

Structure (SMILES): NNc1nc2ccccc2s1
- T/C (dose: 12.5 mg/kg/injection, schedule: Q01DX009 (ip), vehicle: saline with Tween-80): 105 % of control
- T/C [7]: 107 % of control
- T/C [8]: 98 % of control

Structure (SMILES): CC1(O)Cc2c(O)c3c(c(O)c2CC1O)C(=O)C=CC3=O (stereo not given)
- T/C (dose: 3.13 mg/kg/injection, schedule: Q04DX003 (ip), vehicle: distilled water + Tween-80): 100 % of control
- T/C (dose: 6.25 mg/kg/injection, schedule: Q04DX003 (ip), vehicle: distilled water + Tween-80): 100 % of control
- T/C (dose: 12.5 mg/kg/injection, schedule: Q04DX003 (ip), vehicle: distilled water + Tween-80): 97 % of control
- T/C (dose: 25.0 mg/kg/injection, schedule: Q04DX003 (ip), vehicle: distilled water + Tween-80): 100 % of control and 96 % of control

Structure (SMILES): CC1(C)c2cccc(O)c2C(=O)C2C(O)=C3C(O)=C(C(N)=O)C(=O)CC3C(O)C21 (stereo not given)
- T/C [13]: 109 % of control
- T/C [17]: 111 % of control
- T/C [18]: 121 % of control

Structure (SMILES): Nc1nc(Sc2ccccn2)ccc1[N+](=O)[O-]
- T/C [8]: 91 % of control
- T/C [9]: 91 % of control
- T/C [22]: 102 % of control

Structure (SMILES): CSC(=NC(=O)c1c(Cl)cccc1Cl)SC
- T/C [13]: 102 % of control
- T/C [17]: 100 % of control
- T/C [18]: 90 % of control

Structure (SMILES): Cc1c(C(=O)c2ccc3c(c2)OCO3)ccc2c1OCO2
- T/C [1]: 105 % of control
- T/C [2]: 105 % of control
- T/C [3]: 98 % of control

Structure (SMILES): COc1ccc(C(=O)CC(=O)CCC(=O)Nc2ccc(Cl)cc2Cl)cc1
- T/C [13]: 103 % of control
- T/C [17]: 101 % of control
- T/C [18]: 92 % of control

Structure (SMILES): CC1CP(c2ccccc2)(c2ccccc2)(c2ccccc2)OC1(C(=O)c1ccccc1)c1ccccc1 (stereo not given)
- T/C (dose: 6.25 mg/kg/injection, schedule: Q01DX009 (ip), vehicle: saline with Tween-80): 100 % of control
- T/C [7]: 88 % of control

Structure (SMILES): Cc1ccc(OCC2CO2)c(Br)c1 (stereo not given)
- T/C (dose: 25.0 mg/kg/injection, schedule: Q01DX005 (ip), vehicle: saline with Tween-80): 101 % of control and 104 % of control
- T/C [19]: 100 % of control and 106 % of control (2×)
- T/C [20]: 101 % of control and 96 % of control
- T/C [21]: 101 % of control and 105 % of control and 111 % of control
